This is an account of results in patent US3954733A, “Naphthyridine-3-carboxamido-benzylpenicillins and salts thereof” (Sumitomo Chemical Company, Limited, priority 1973, dated 1976).

In general, MIC refers to the lowest concentration found to suppress growth. The low end stands for a more susceptible organism, the high end for a less susceptible organism.

One assay concerns Escherichia coli NIHJ. The assay is described as follows: minimal inhibitory concentration, agar dilution method. The format is cell-based. An excerpt:
(§1) When determined according to the agar dilution method, the penicillins (I) afford the minimal inhibitory concentrations against test microorganisms as shown in Table 2.
For orientation: In agar dilution the substance is mixed into plates at graded concentrations.

The test system of assay [1] is Pseudomonas aeruginosa 104. The description is as above. In kind it is cell-based.
From the text: as §1

Assay [2] deals with Staphylococcus aureus 209P. The description is as above. The format is cell-based.
From the text: as §1

For a further assay, the system named is Proteus miravilis GN2425. The assay is described as above. In kind it is cell-based.
The next assay deals with Proteus vulgaris HV19. The description is as above. The format is cell-based.
The subject of the next assay is Pseudomonas. To be noted: known penicillins and N-acyl ampicillins; cited from earlier work.
Assay [3] deals with gram-positive and gram-negative bacteria. To be noted: known penicillins and N-acyl ampicillins; cited from earlier work.
In assay [4] the test system is Klebsiella pneumoniae PCI602. The assay is described as follows: minimal inhibitory concentration, agar dilution method. The format is cell-based.
From the text: as §1

Values after ≈ are worked out from the molar mass of the structure shown.

In the case of `CC1(C)S[C@@H]2C(NC(=O)C(N)c3ccc(O)cc3)C(=O)N2[C@H]1C(=O)O` (stereo partly drawn) [Amoxycillin, 6-(α-amino-p-hydroxyphenylacetamido)penicillanic acid, reference compound], the minimal inhibitory concentration (MIC) with Escherichia coli NIHJ was 12.5 µg/mL (≈ 34.2 µM); in assay [1], more than 200 µg/mL; in assay [2] it was 0.2 µg/mL (≈ 0.547 µM); in the assay on Proteus miravilis GN2425, 3.13 µg/mL (≈ 8.57 µM); against Proteus vulgaris HV19, 12.5 µg/mL (≈ 34.2 µM). In addition, the “antimicrobial activity against Pseudomonas” value with Pseudomonas is listed as “do not exert any appreciable antimicrobial activity against Pseudomonas”. Further, the “growth inhibition / antimicrobial activity against gram-positive and gram-negative bacteria” value in assay [3] was “inhibit the growth of various gram-positive and gram-negative bacteria”.
As for `CC1(C)S[C@@H]2[C@H](NC(=O)C3(N)CCCCC3)C(=O)N2[C@H]1C(=O)O` [Cyclacillin, 6-(1-amino-cyclohexane)carboxamidopenicillanic acid], the “antimicrobial activity against Pseudomonas” value in the assay with Pseudomonas is recorded as “do not exert any appreciable antimicrobial activity against Pseudomonas”. The “growth inhibition / antimicrobial activity against gram-positive and gram-negative bacteria” value in assay [3] is “inhibit the growth of various gram-positive and gram-negative bacteria”.
For `CC1(C)S[C@@H]2[C@H](NC(=O)[C@H](N)C3=CCC=CC3)C(=O)N2[C@H]1C(=O)O` [Epicillin, 6-[α-amino-2-(1,4-hexadienylacetamido)]penicillanic acid], the “antimicrobial activity against Pseudomonas” value in the assay with Pseudomonas is given as “do not exert any appreciable antimicrobial activity against Pseudomonas”. Besides, the “growth inhibition / antimicrobial activity against gram-positive and gram-negative bacteria” value in assay [3] is “inhibit the growth of various gram-positive and gram-negative bacteria”.
Turning to `CC1(C)S[C@@H]2[C@H](NC(=O)C(NC(=O)c3ccccn3)c3ccccc3)C(=O)N2[C@H]1C(=O)O` (some centres unmarked) [R, reference compound], the minimal inhibitory concentration (MIC) with Escherichia coli NIHJ is 100 µg/mL (≈ 220 µM); in assay [4] it was 50 µg/mL (≈ 110 µM); in assay [1], 50 µg/mL (≈ 110 µM); in assay [2], 0.78 µg/mL (≈ 1.72 µM); in the assay on Proteus miravilis GN2425 it was 50 µg/mL (≈ 110 µM).
As for `CC1(C)S[C@@H]2C(NC(=O)C(N)c3ccccc3)C(=O)N2[C@H]1C(=O)O` (stereo partly drawn) [Ampicillin, 6-(α-amino-phenylacetamido)penicillanic acid, reference compound], the values for the MIC (against Escherichia coli NIHJ; in assay [2]) were 6.26 µg/mL (≈ 17.9 µM) and 0.1 µg/mL (≈ 0.286 µM), respectively. The “growth inhibition / antimicrobial activity against gram-positive and gram-negative bacteria” value in assay [3] is “inhibit the growth of various gram-positive and gram-negative bacteria”.
Turning to “6-(α-amino-isothiazolylacetamido)penicillanic acid”, the “antimicrobial activity against Pseudomonas” value in the assay on Pseudomonas is listed as “do not exert any appreciable antimicrobial activity against Pseudomonas”. For the same compound, the “growth inhibition / antimicrobial activity against gram-positive and gram-negative bacteria” value in assay [3] was “inhibit the growth of various gram-positive and gram-negative bacteria”.
For “6-(α-amino-thienylacetamido)penicillanic acid”, in the assay with Pseudomonas, the “antimicrobial activity against Pseudomonas” value was “do not exert any appreciable antimicrobial activity against Pseudomonas”. The “growth inhibition / antimicrobial activity against gram-positive and gram-negative bacteria” value in assay [3] was “inhibit the growth of various gram-positive and gram-negative bacteria”.
In the case of `Cc1nc(C)c2ncc(C(=O)N[C@@H](C(=O)N[C@@H]3C(=O)N4[C@@H]3SC(C)(C)[C@@H]4C(=O)O)c3ccc(O)cc3)c(O)c2n1` [Example 35], the MIC stood at 1.56 µg/mL (≈ 2.75 µM) against Escherichia coli NIHJ; 1.56 µg/mL (≈ 2.75 µM) in assay [1]; 0.78 µg/mL (≈ 1.38 µM) in assay [2]; 1.56 µg/mL (≈ 2.75 µM) against Proteus miravilis GN2425; 0.025 µg/mL (≈ 0.0441 µM) in the assay with Proteus vulgaris HV19.
For the compound `CC1(C)S[C@@H]2[C@H](NC(=O)[C@H](NC(=O)c3cnc4cccnc4c3S)c3ccc(O)cc3)C(=O)N2[C@H]1C(=O)O` [Example 43], the MIC against Escherichia coli NIHJ was determined as 1.56 µg/mL (≈ 2.82 µM); in assay [1] it was 1.56 µg/mL (≈ 2.82 µM); in assay [2], 0.78 µg/mL (≈ 1.41 µM); against Proteus miravilis GN2425, 1.56 µg/mL (≈ 2.82 µM); against Proteus vulgaris HV19, 0.025 µg/mL (≈ 0.0452 µM).
For `COc1cnc2c(O)c(C(=O)N[C@@H](C(=O)N[C@@H]3C(=O)N4[C@@H]3SC(C)(C)[C@@H]4C(=O)O)c3ccc(O)cc3)cnc2n1` [Example 41], the minimum inhibitory concentration (MIC) with Escherichia coli NIHJ stood at 6.25 µg/mL (≈ 11 µM); in assay [1] it was 3.13 µg/mL (≈ 5.51 µM); in assay [2], 1.56 µg/mL (≈ 2.74 µM); in the assay on Proteus miravilis GN2425 it was 6.25 µg/mL (≈ 11 µM); in the assay with Proteus vulgaris HV19, 0.2 µg/mL (≈ 0.352 µM).
